# Results from patent publication US11976300B2, “Use of water-soluble realgar solid dispersion in preparation of erythroid differentiation inducer for bone marrow hematopoietic stem cells and/or bone marrow hematopoietic progenitor cells” (Institute of Basic Medical Sciences Chinese Academy of …, priority 2018, dated 2024).
# Test: Evaluation of water solubility (appearance of water dispersion)
# Type: physicochemical
# Conditions: 1.500 g e-As4S4 of Embodiment 5 or 100 mg r-As4S4 powder in 10 mL ddH2O; FIG. 1
# Description: 1.500 grams of e-As4S4 of Embodiment 5 and 100 mg of the r-As4S4 powder were weighed and added in 10 mL of double distilled water (ddH2O), respectively to obtain the water dispersion solution of e-As4S4 and r-As4S4.
compound,measurement,value
"S1[As]2S[As]3S[As]2S[As]13 [r-As4S4, As4S4]",dissolution in ddH2O (appearance of the suspension),hardly to dissolve in water
